# Measurements: the supplement of paper PMC4954754
# Several values for one entry are separate records, joined by “and”; a condition that tells them apart may be missing. Equal entries are not always repeated. ± gives the uncertainty stated by the source.
# How the values were obtained:
# Settings in all cases: 18 h
# HEK293T-Rex ERSE-FLuc [1] = assay: EC50 for ERSE-FLuc reporter activation
# Description: (§1)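 Dose-response of hit compounds in HEK293T-Rex cells stably expressing ERSE-FLuc or XBP1-RLuc reporters, 18 hr treatment, 1536-well; luminescence normalised to 500 nM thapsigargin (100%) and DMSO (0%), fitted to give EC50 (M) and maximal activation; '>' marks EC50 above the top tested dose (~17 µM).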
# HEK293T-Rex XBP1-RLuc [2] = assay: EC50 for XBP1-RLuc reporter activation
# Description: as §1
# HEK293T-Rex XBP1-RLuc [3] = assay: maximal XBP1-RLuc activation from dose-response fit, relative to thapsigargin (% of thapsigargin); higher = stronger activation
# Description: as §1
# HEK293T-Rex ERSE-FLuc [4] = assay: maximal ERSE-FLuc activation from dose-response fit, relative to thapsigargin (% of thapsigargin); higher = stronger activation
# Description: as §1
Structure (SMILES),EC50 for ERSE-FLuc reporter activation (HEK293T-Rex ERSE-FLuc [1]),EC50 for XBP1-RLuc reporter activation (HEK293T-Rex XBP1-RLuc [2]),maximal XBP1-RLuc activation (HEK293T-Rex XBP1-RLuc [3]),maximal ERSE-FLuc activation (HEK293T-Rex ERSE-FLuc [4])
Cc1ccc(C(=O)Nc2ccccc2N)cc1,4.27 µM,> 14.7 µM,42.2 ± 2.2,137 ± 15
C=CCNC(=O)c1sc2nc3cc(C)c(C)cc3cc2c1N,> 16.9 µM,> 16.9 µM,2.32 ± 1.2,8.68 ± 2
Cc1ccc(O)c(NC(=O)c2cc(-c3ccc(F)cc3)on2)c1,> 16.9 µM,> 16.9 µM,18.8 ± 3.2,31 ± 7.9
O=C1NC(=Nc2ccc(F)cc2)S/C1=C\c1ccc(O)c(O)c1,6.92 µM,12.4 µM,55.3 ± 2.5,85.9 ± 7.7
O=C(N/N=C/c1cccc(O)c1O)c1ccccn1,> 18.4 µM,> 18.4 µM,20.3 ± 1.1,25.7 ± 1.9
Cc1cc(C)c2nc3sc(C(=O)N4CCCCC4)c(N)c3cc2c1,> 16.9 µM,> 16.9 µM,13.4 ± 1.4,34 ± 5.5
CCOc1ccc(NC(=O)c2ccc3c(c2)OCO3)c([N+](=O)[O-])c1,> 18.6 µM,> 18.6 µM,0.524 ± 1.2,14.7 ± 3
O=C(N/N=C/c1ccc(O)c(O)c1)c1cccc(Cl)c1,13.6 µM,> 16.9 µM,29.3 ± 2.4,69.2 ± 4.9
CC(C)CNC(=O)c1cc(-c2ccc(F)cc2)no1,> 16.9 µM,> 16.9 µM,4.76 ± 1.8,20.8 ± 5.8
COc1ccc(C(=O)Nc2nnc(-c3cccs3)s2)cc1,> 16.9 µM,> 16.9 µM,1.9 ± 0.9,18.8 ± 1.5
Nc1ccc2nc(/C=C/c3ccco3)[nH]c2c1,> 16.9 µM,> 16.9 µM,32.3 ± 1.3,27.4 ± 2.5
O=C(CCc1ccccc1)Nc1ccc(Cl)cn1,> 17.7 µM,> 17.7 µM,5.24 ± 0.68,26.1 ± 2.5
O=c1cc(-c2ccc(O)c(O)c2)oc2cc(O)cc(O)c12,14.1 µM and 7.57 µM,> 16.9 µM,36.6 and 29,80.9 and 67.8
Cc1ccc(O)c(NC(=O)c2cc(C(C)C)on2)c1,> 16.9 µM,> 16.9 µM,14.4 ± 1.7,39.9 ± 7.2
O=C1/C(=C/c2ccc(O)c(O)c2)SC(=S)N1c1ccc(O)cc1,12.4 µM,> 16.9 µM,35.5 ± 3.5,77.1 ± 17
CC(=O)N1CCc2c([nH]c3ccccc23)C12CCN(CCCOc1ccccc1)CC2,2.94 µM,2.11 µM,176 ± 21,151 ± 7.6
C/C(=N\NC(=O)c1n[nH]c2c1CCCC2)c1ccc(Br)cc1,> 16.9 µM,> 16.9 µM,8.77 ± 2,32.5 ± 9.9
NC(=O)c1c(NC(=O)/C=C/c2ccccc2)sc2c1CCCCC2,> 16.9 µM,> 16.9 µM,3.01 ± 2.8,22.6 ± 3.1
O=C(CCCCCCC(=O)Nc1ccccc1)NO,6.58 µM,> 16.9 µM,3.17 ± 2.9,132 ± 25
CCOc1ccc2nc(NC(=O)c3ccn(C)n3)sc2c1,> 14.4 µM,> 14.4 µM,4.53 ± 2.8,10.9 ± 2.4
c1ccc2cc(-c3cnnc(N4CCOCC4)n3)ccc2c1,> 16.9 µM,> 16.9 µM,4.15 ± 2.7,25.2 ± 10
O=C(COC(=O)c1ccc(O)c(O)c1)Nc1nc(-c2ccccc2)cs1,> 18.2 µM,16.8 µM,53.4 ± 3.6,36.1 ± 4.4

Structure (SMILES),EC50 for ERSE-FLuc reporter activation (HEK293T-Rex ERSE-FLuc [1]),EC50 for XBP1-RLuc reporter activation (HEK293T-Rex XBP1-RLuc [2]),maximal XBP1-RLuc activation (HEK293T-Rex XBP1-RLuc [3]),maximal ERSE-FLuc activation (HEK293T-Rex ERSE-FLuc [4])
CCCNC(=O)c1cc(-c2ccc(F)cc2)on1,12 µM,> 16.9 µM,11.7 ± 3.2,65.8 ± 6.4
Oc1ccc(-c2csc3nc(-c4ccccc4)nn23)c(O)c1,> 16.9 µM,> 16.9 µM,32.4 ± 1.3,30.1 ± 2.2
Cc1ccc(O)c(NC(=S)NC(=O)/C=C/c2ccco2)c1,> 16.9 µM,> 16.9 µM,5.76 ± 1.5,30.2 ± 7.3
COc1cc(/C=C/c2ccc(O)c(OC)c2)ccc1O,> 16.9 µM,8.73 µM,72.3 ± 8.1,31.1 ± 6.9
O=C(N/N=C/c1ccc(Cl)cc1)c1n[nH]c2c1CCCC2,> 16.9 µM,> 16.9 µM,6.88 ± 3.1,21.7 ± 1.7
Cc1ccc2nc(/C(C#N)=C\c3cc(Cl)cc4c3OCOC4)[nH]c2c1,> 16 µM,> 16 µM,3.21 ± 1.4,20.1 ± 3.4
COc1cccc(C(=O)Nc2nc3ccc(C)cc3s2)c1,> 20.6 µM,> 20.6 µM,10.2 ± 2.3,31.7 ± 6.6
Oc1ccc(-c2cn3ccccc3n2)cc1O,18.4 µM,> 22.5 µM,38.7 ± 3.2,51.7 ± 5.5
CCn1c(/C(C#N)=C/c2ccc(OC)cc2)nc2ccccc21,> 19.4 µM,> 19.4 µM,5.17 ± 3,30.6 ± 6.3
COc1ccccc1-c1nnc(Nc2nc3c(OC)cccc3s2)o1,> 16.9 µM,> 16.9 µM,12.5 ± 1,32.7 ± 3
COc1ccccc1-c1cnnc(N/N=C/c2c[nH]c3ccccc23)n1,> 16.9 µM,> 16.9 µM,29.8 ± 2.1,49.9 ± 8.2
Nc1ccccc1NC(=O)c1ccc(C(=O)Nc2ccccc2N)cc1,7.17 µM,> 9.59 µM,16.1 ± 6.4,65.8 ± 3.4
Nc1ccccc1NC(=O)c1ccc(C(F)(F)F)cc1,9.12 µM,> 19.9 µM,37.7 ± 3.5,73.1 ± 8.1
Cc1cc(C)c(OCC(=O)N/N=C/c2ccc(O)c(O)c2)c(Br)c1,> 16.9 µM,> 16.9 µM,41.1 ± 11,49.6 ± 5.9
O=C(N/N=C\C(Br)=C\c1ccccc1)c1n[nH]c2c1CCCC2,> 16.9 µM,> 16.9 µM,9.49 ± 5.7,17.2 ± 4.7
CCOc1cc(/C=C2/NC(=O)N(c3cccc(Cl)c3)C2=O)ccc1O,> 16.9 µM,11.9 µM,61.4 ± 9.7,47.5 ± 4.4
CC(=O)Oc1ccc(C(=O)OCc2ccc(Cl)cc2)cc1OC(C)=O,> 18.6 µM,> 18.6 µM,24.7 ± 3.7,40.4 ± 4.3
Cc1ccc(O)c(NC(=O)CSc2n[nH]c(C)c2[N+](=O)[O-])c1,5.79 µM,> 16.9 µM,37.4 ± 7.3,98.8 ± 16
Nc1ccc2nc(-c3cc(Cl)c(N)c(Cl)c3)[nH]c2c1,> 13 µM,> 13 µM,13.1 ± 1.1,22.7 ± 10
CCN(CC)c1ccc(NC(=O)c2cccc(OC)c2)cc1,> 17.8 µM,> 17.8 µM,2.18 ± 7.1,29.7 ± 5.3
COc1ccc(/C=N/NC(=O)c2cccc(F)c2)cc1Br,> 16.9 µM,> 16.9 µM,1.14 ± 6.2,31 ± 5.5
COc1ccc(/C=N/c2sc3c(c2C(N)=O)CCCC3)cc1,> 16.9 µM,> 16.9 µM,4.94 ± 3.8,20.9 ± 2
